These results are taken from patent US8901142B2, “Fused tricyclic compounds as mTOR inhibitors” (Merck Sharp & Dohme Corp., priority 2011, dated 2014).

pIC50: −log10 of the molar value.

Experiment [1] relates to mTORC2 (pAKT S473) in PC3 cells. Nature of the experiment: mTOR target engagement assay, immunofluorescent cell-based, mTORC2 activity by reduction of pAKT S473. The following applies: Homo sapiens, PC-3, ninety minutes at 37° C., immunofluorescence. How it is done:
(§1) The target engagement of mTOR kinase inhibitors was evaluated using an immunofluorescent cell-based assay. In this assay, inhibition of mTORC1 activity was measured by the reduction in the level of phosphorylated 4E-BP1Thr37/46 (p4E-BP1 Thr37/46), and inhibition of mTORC2 activity was measured by the reduction of phosphorylated AKTSer473 (pAKT S473).
(§2) PC3 cells (prostate tumor cell-line that contains a mutation in the tumor suppressor PTEN, that promotes the phosphorylation and activation of AKT and 4E-BP 1) were used in the immunofluorescence assay. PC3 cells were seeded on 384 well plates (black clear bottom, Matrix #4332) overnight. PC3 cells were then treated with 40 μl of the serially diluted test compounds (in 5% fetal bovine serum, F12 medium containing 0.25% DMSO) for ninety minutes at 37° C. The test compound solution was removed, and the plates were washed gently two times with 25 μl phosphate buffered saline (PBS). The cells were fixed by adding 25 μl of Prefer reagent (from Anatech LTD, Cat#414, a glyoxal fixative for fixing proteins within a cell) for sixty minutes followed by three washes with PBS. 5% Goat serum in PBS/0.3% Triton was used to block non-specific binding (60 minutes).
(§3) The primary antibodies targeting pAKT S473 and p4E-BP1 Thr37/46 were diluted into PBS/0.3% Triton and incubated with the cells overnight at 4° C. The antibodies targeting pAKTS473 (Cat#4085, Cell signaling) and p4E-BP1 Thr37/46 (Cat#2855, Cell signaling) were used at a 1:100 dilution. Plates were washed three times with PBS/0.1% Tween 20 before adding the secondary antibody at a 1:200 dilution. (goat anti-rabbit containing a fluorescent label, Alexa Fluor 488, Cat# A11008, Invitrogen) in PBS/0.3% Triton for 60 minutes.
(§4) Finally, the plates were washed three times with PBS/0.1% Tween 20 and the fluorescent intensity was read using an Analyst HT from Molecular Devices. The fluorescent intensity values from the serially diluted compound treatment group were analyzed using the Xlfit 4 program ([…]) (Formula 205: Y=Bottom+(Top-Bottom)/(1+(IC50/X)^Hillslope) to generate the IC50 value. Where Top is the maximum signal without Compound (+DMSO only) and Bottom represents maximum inhibition. Y is the fluorescence at some compound concentration. The control used to determine the fluorescent intensities for 100% pAKT S473 or 100% phosphorylated p4E-BP1 Thr37/46 were measured from untreated wells that contained only DMSO, instead of test compound.

Experiment [2] deals with mTORC1 (p4E-BP1 Thr37/46) in PC3 cells. Description: mTOR target engagement assay, immunofluorescent cell-based, mTORC1 activity by reduction of p4E-BP1 Thr37/46. The following applies: Homo sapiens, PC-3, ninety minutes at 37° C., immunofluorescence. How it is done: as §1, §2, §3, §4

A word on the pIC50: it is the IC50 on a negative log10 scale, so that one unit is a factor of ten. Low readings indicate a high IC50, high ones a low IC50. `O=C(c1nnc[nH]1)N1[C@@H]2CC[C@H]1C[C@H](c1nc3c(-c4ccc(-c5ncc[nH]5)nc4)cnn3c3[nH]ccc13)C2` [Example 6, ((1R,3s,5S)-3-(3-(6-(1H-imidazol-2-yl)pyridin-3-yl)-8H-pyrazolo[1,5-a]pyrrolo[3,2-e]pyrimidin-5-yl)-8-azabicyclo[3.2.1]octan-8-yl)(4H-1,2,4-triazol-3-yl)methanone]: the pIC50 in experiment [1] and in experiment [2] was 7.00 to 9.00 in each case.
In the case of `O=C(CO)N1[C@@H]2CC[C@H]1C[C@H](c1nc3c(-c4ccc(-c5ncc[nH]5)nc4)cnn3c3[nH]ccc13)C2` [Example 5, 1-((1R,3s,5S)-3-(3-(6-(1H-imidazol-2-yl)pyridin-3-yl)-8H-pyrazolo[1,5-a]pyrrolo[3,2-e]pyrimidin-5-yl)-8-azabicyclo[3.2.1]octan-8-yl)-2-hydroxyethanone], the pIC50 in experiment [1] is 7.00 to 9.00; in experiment [2], 6.00 to 7.00.
In the case of `CC(C)(O)c1ccc(-c2cnn3c2nc([C@@H]2C[C@H]4CC[C@@H](C2)N4C(=O)CO)c2cc[nH]c23)cn1` [Example 4, 2-hydroxy-1-((1R,3s,5S)-3-(3-(6-(2-hydroxypropan-2-yl)pyridin-3-yl)-8H-pyrazolo[1,5-a]pyrrolo[3,2-e]pyrimidin-5-yl)-8-azabicyclo[3.2.1]octan-8-yl)ethanone], the figures for the pIC50 in experiment [1] and in experiment [2] were 5.70 to 6.00 and 6.00 to 7.00, respectively.
Consider `Cc1n[nH]c2c1c([C@@H]1C[C@H]3CC[C@@H](C1)N3C(=O)c1nnc[nH]1)nc1c(-c3ccc(-c4ccccc4)nc3)cnn12` [Example 1, ((1R,3s,5S)-3-(3-methyl-6-(6-phenylpyridin-3-yl)-1H-dipyrazolo[1,5-a:4′,3′-e]pyrimidin-4-yl)-8-azabicyclo[3.2.1]octan-8-yl)(4H-1,2,4-triazol-3-yl)methanone], for which the pIC50 in experiment [1] was 7.00 to 9.00; in experiment [2], 6.00 to 7.00.
With `O=C(c1nnc[nH]1)N1[C@@H]2CC[C@H]1C[C@H](c1nc3c(-c4ccc(-c5ccccc5)nc4)cnn3c3[nH]ccc13)C2` [Example 2, ((1R,3s,5S)-3-(3-(6-phenylpyridin-3-yl)-8H-pyrazolo[1,5-a]pyrrolo[3,2-e]pyrimidin-5-yl)-8-azabicyclo[3.2.1]octan-8-yl)(4H-1,2,4-triazol-3-yl)methanone], the pIC50 in experiment [1] and in experiment [2] was 7.00 to 9.00 each time.
Turning to `CC(C)(O)c1ccc(-c2cnn3c2nc([C@@H]2C[C@H]4CC[C@@H](C2)N4C(=O)c2nnc[nH]2)c2cc[nH]c23)cn1` [Example 3, ((1R,3s,5S)-3-(3-(6-(2-hydroxypropan-2-yl)pyridin-3-yl)-8H-pyrazolo[1,5-a]pyrrolo[3,2-e]pyrimidin-5-yl)-8-azabicyclo[3.2.1]octan-8-yl)(1H-1,2,4-triazol-3-yl)methanone], the pIC50 in experiment [1] and in experiment [2] was 6.00 to 7.00 each time.
